Reference: patent publication EP0719267B1, “SECOND MESSENGER CELL SIGNALING INHIBITORS” (CELL THERAPEUTICS, INC., priority 1993, dated 1994)

Experiments:
mast cell degranulation = assay: Serotonin release assay for inhibition of mast cell degranulation; format: cell-based; settings: for % Inhibition: Concentration 50 µM
Description: This assay provides an in vitro model for an allergy and asthma therapeutic product. […]

[1] = test system: mixed lymphocyte reaction assay culture; assay: Cell percent viability in mixed lymphocyte reaction culture; format: cell-based; settings: 100 µM, six days of cell culture
Procedure: Cell percent viability in mixed lymphocyte reaction assay culture was determined after six days of cell culture. […] Control cells unexposed to drugs are generally 78 to 85% viable under these culture conditions. In this assay, all inventive compounds were present at 100 µM concentrations, generally well above corresponding IC50 values in this assay (see fig. 2D). […] Compounds nos.

[2] = test system: proliferative PMBC response to allogeneic stimulation; assay: Two-way mixed lymphocyte reaction; format: cell-based
Description: This example illustrates therapeutic potential for various autoimmune and inflammatory diseases of the inventive compounds by comparing potency (inhibitive activity) with cytotoxicity data obtained using the following indicative assay procedures. In a mixed lymphocyte reaction assay of compounds nos. […] Compounds nos. […] 2A and 2B. Both compounds nos. […] 2C.
Compound no. […] Compound no.

CMV promoter activity = assay: microbe, parasite or virus in culture; format: cell-based; settings: for IC50: transformed (adenovirus) cells
Description: This example illustrates data of proliferative activity of various inventive compounds for inducing CMV promoter activity. The CMV promoter assay measures gene transcription and translation activity wherein any active compounds will have cytotoxic activity for inhibiting cellular protein synthesis in transformed (adenovirus) cells. Compound no. […]

Human stromal cells = assay: Stromal cell proliferation in response to PDGF-BB; format: cell-based; settings: 50 ng/ml PDGF-BB
Procedure: This assay is useful for predicting therapeutic activity for preventing or treating restenosis, atherosclerosis and coronary artery disease. Human stromal cells were starved in serum-free media for one day and then stimulated with 50 ng/ml PDGF-BB. Inventive compounds, at various concentrations, were added one hour prior to PDGF stimulation. PDGF and tritiated thymidine were added and the cells allowed to incubate for one day, following addition of the PDGF and thymidine. 24 Hours later, the cells were harvested and counted by liquid scintillation counting. Results for compounds nos. Background counts (i.e., starved cells) were approximately 1% of control levels. […] 30, 28, 29, 32 and 31, respectively.

[3] = test system: murine splenocyte proliferation; assay: Splenocyte (B cell) proliferation stimulated by anti-mu/anti-IgM and IL-4; format: cell-based; settings: Mus musculus, anti-mu and IL-4 12.5 ng/ml
Procedure: This example illustrates inhibitive effects of compounds nos. 27 and 28 on murine splenocyte proliferation stimulated by anti-mu ([…]) and interleukin-4 (IL-4, 12.5 ng/ml). This in vitro assay, described above, is indicative of immune-suppressive/autoimmune treatment assay emphasizing humoral or B cell immune response. The inventive compound was added to the cells at the doses indicated two hours prior to activation with anti-mu and IL-4. Both compounds nos. 27 and 28 inhibited splenocyte proliferation in a dose-response manner. IC50 values for compounds nos. Background counts were less than 200 cpm.
In figure 57, results shown illustrate that inventive compound no. 45 inhibits B cell proliferation. Murine splenocytes were stimulated with anti-IgM antibodies (10 µg/ml) and murine IL-4 (12.5 ng/ml). Cells were pulsed with ^3HTdR at 44 hours, harvested 4 hours later, and the incorporation of ^3H-TdR was determined by liquid scintillation.

[4] = test system: murine thymocyte proliferation; assay: Thymocyte proliferation stimulated by Con A and IL-1α; format: cell-based; settings: Mus musculus, 2 h, added two hours prior to Con A and IL-1α
Procedure: In a first part of this example, compounds nos. 30, 33, 28 and 27 (see above for chemical names and structures) show effective inhibition of murine thymocyte proliferation stimulated by Con A and interleukin 1 alpha (IL-1α). Compounds nos. 30, 33, 28 and 27 were added to cell cultures two hours prior to activation with Con A and IL-1α in a thymocyte co-stimulation procedure akin to that discussed in example 21. […] IC50 values determined for each inventive compound tested are as follow: compound no. […] Background counts in the assay were less than 200 cpm.

[5] = test system: murine thymocyte proliferation; assay: Thymocyte proliferation co-stimulated by ConA and IL-2 (tritiated thymidine); format: cell-based, Balb/C mice; settings: for inhibition of thymocyte proliferation: ConA and IL-2 co-stimulation
Procedure: (§1) ConA, used to activate CD3, induces T-cell proliferation and differentiation. Thymuses, obtained from normal, female Balb/C mice, were dissociated and plated into 96-well plates at a density of 2 x 10^5 cells/well. ConA (0.25 mg/ml) and IL-2 (15 U/ml) were added to the wells. The cells were incubated for 4 days at 37°C. On day 4, the cells were pulsed with tritiated thymidine and incubated for an additional 4 hours. The amount of tritiated thymidine dye incorporated by the harvested cells was determined in a liquid scintillation counter. Drug doses (shown in figs. 1A and 1B) were added two hours prior to ConA and IL-2 activation.
as §1, with “Thymuses,” for “ConA, used to activate CD3, induces T-cell proliferation and differentiation. Thymuses,”, “37 °C.” for “37°C.”, “Doses” for “Drug doses”, “26A, 26B” for “1A”, “26C)” for “1B)”
In another in vitro protocol, thymocyte proliferation was induced by sub-mitogenic doses of Con A (0.25 µg/ml) and IL-2 (20 ng/ml). Cells were stimulated for 96 hours, prior to addition of ^3H-TdR for 4 hours. The cells were harvested and incorporation of ^3H-TdR was determined.
45 on co-stimulated thymocyte proliferation. In an assay procedure, murine thymocytes were stimulated with ConA and IL-2 with 1 µM compound no. 45 added either 1 hour prior to IL-2 (-1), simultaneous with IL-2 (0) or at various times following IL-2 addition (1-92 hour). At 92 hours the thymocytes were pulsed with ^3H-TdR, harvested and counted by scintillation 4 hours later.

[6] = test system: PDGF/IL-1 co-stimulation, proliferation; assay: PDGF/IL-1 co-stimulation proliferation assay; format: cell-based; settings: fig. 14
Description: The PDGF/IL-1 assay is useful in measuring in vitro activity, indicative of therapeutic potential for treating or preventing restenosis and reperfusion. Figure 14 reports IC50 bar graph results for a group of inventive compounds nos. 27, 28, 32, 30, 31, 32 and 34. In this predictive, in vitro model, compounds nos.

[7] = Cytotoxicity to stromal cells in the stromal cell/PDGF stimulation assay; format: cell-based; settings: human, read-out: concentrations with cytotoxic effects
Procedure: In conjunction with the human stromal cell/PDGF stimulation assay, cytotoxicity of the inventive compounds tested to stromal cells was also determined. […] Only compond no.

Saccharomyces cervisiae = assay: Yeast growth assay (anti-yeast and anti-fungal activity); format: cell-based; settings: 100 µM
Procedure: This example illustrates the effects of a reference compound "X", and inventive compounds nos. 29, 30, 31, 32 and 33 (see above for names and structures) on yeast growth (Saccharomyces cervisiae)--using 100 µM concentrations--as compared with yeast activity in the absence of any compound additive (control). This assay measured anti-yeast and anti-fungal activity of the inventive compounds tested.

mouse thymocytes = assay: Con A priming followed by IL-2 restimulation of thymocytes; format: cell-based
Procedure: In a proliferation assay, mouse thymocytes were pre-incubated overnight with Con A (a "priming step"), washed, and restimulated with IL-2 in […] of inventive compounds. On day 4, the cells were pulsed with tritiated thymidine and allowed to incubate for an additional 4 hours. The cells were harvested and the amount of tritiated thymidine incorporated by the harvested cells was determined in a liquid scintillation counter. […] 3.
On day 4, the cells were pulsed with tritiated thymidine and allowed to incubate for an additional 4 hours. The cells were harvested and the amount of incorporated tritiated thymidine was determined in a liquid scintillation counter.

[8] = test system: murine cytotoxic T-cell line, CT6; assay: Cytokine-induced proliferation of the cytotoxic T-cell line CT6 / CT-6.1; format: cell-based
Procedure: Another assay in this example was used to determine inhibitive activity of the inventive compounds on direct IL-2-induced proliferation in a murine cytotoxic T-cell line, CT6. The CT6 cell line is an IL-2-dependent cell line. IL-2 was removed from the medium for 24 hours prior to stimulation. […] 49, 50, 45, 43 or 41 were added at various concentrations. The cells were stimulated with IL-2 and amount of tritiated thymidine dye incorporated was measured 48 hours later.
In another related assay, inhibitory effects on CT6 cell proliferation is examined. CT6 cells are a murine IL-2 dependent, cytotoxic T cell line that proliferate in response to murine IL-2 (15 U/ml).
CT-6.1 cells were starved overnight and stimulated with IL-2 (20 ng/ml). Twenty hours later, cells were labeled for 4 hours with ^3H-TdR and counted by liquid scintillation.
CT6.1 cells were cultured with IL-2 with or without the addition of inventive compound no. 45 (2 µM) and viable cells counted for up to 8 days. On day 4, two cultures previously incubated with compound no. 45, were washed and recultured with fresh IL-2 with or without compound no. 45 (2 µM).
Procedurally, CT-6.1 cells were starved overnight and stimulated with either IL-2 (20 ng/ml), IL-4 (50 ng/ml) or IL-7 (25 ng/ml). ^3H-TdR was added at 20 hours, cells were harvested 4 hours later, and the incorporation of ^3H-TdR was determined.

IL-2 = IL-2 production in thymocytes stimulated with ConA and IL-1 (ELISA); format: cell-based, murine; settings: ConA and IL-1, 4 days
Description: Thymocytes were stimulated with ConA and IL-1 for 4 days with or without adding inventive compounds to the culture media. The supernatants were removed and assayed by ELISA for IL-2 levels by a commercially available kit.

[9] = test system: splenocyte IL-2-stimulated proliferation; assay: Splenocyte IL-2-stimulated proliferation; format: cell-based; settings: Mus musculus, read-out: block of splenocyte IL-2-stimulated proliferation
[10] = test system: IL-2 (alpha chain CD25) receptor; assay: IL-2 receptor expression on anti-CD3 stimulated splenocytes (flow cytometry); format: cell-based, mouse; settings: anti-CD3 10 µg/ml, 1 µM
Procedure: This investigation illustrates IL-2 (alpha chain CD25) receptor expression on mouse splenoyctes. The IL-2 receptor is not expressed on resting T-cells, but is rapidly-induced by certain stimulants, e.g. antigen recognition or treatment with ConA or antibodies to CD3 (anti-CD3). IL-2-dependent proliferation requires IL-2 receptor expression. […] 49 (1 µM). Following overnight incubation, the splenocytes were stained with a fluoresceinated anti-IL-2 receptor antibody and fluorescence measured by flow cytometry. Figures 5A and 5B are frequency histograms of measurements for 20,000 cells per sample.
In another assay, inventive compound no. […] Murine splenocytes were activated for 24 hours with anti-CD3 (1 µg/ml), stained with a fluorescent antibody to CD25 and analyzed by flow cytometry.

| Compound | cytotoxicity (percent viability) [1] | IC50 (CMV promoter activity) [µM] | IC50 (Human stromal cells) [nM] | IC50 [4] [µM] | inhibition of thymocyte proliferation [5] | inhibitive activity [6] | % Inhibition (mast cell degranulation) | yeast-growth inhibitive activity (Saccharomyces cervisiae) | other results |
| --- | --- | --- | --- | --- | --- | --- | --- | --- | --- |
| Cn1cnc2c1c(=O)n(CCCCC(O)CNCc1ccccc1)c(=O)n2C (stereo not drawn) [compound no. 13, 1-(5-hydroxy-6-(N-benzyl)aminohexyl)-3,7-dimethylxanthine] | little or no cytotoxicity | > 500 | – | – | – | – | – | – | inhibition at 100 µM (mast cell degranulation; Mast cell, Concentration 100 µM): 28%; IC50 ([2]; Lymphocyte, figs. 2A-2C): 55 µM |
| CCCCCCCCNCC(O)CCCCn1c(=O)c2c(ncn2C)n(C)c1=O (stereo not drawn) [compound no. 28, 1-(5-hydroxy-6-(N-octyl)aminohexyl)-3,7-dimethylxanthine] | the most cytotoxic at 100 µM | 50 | 3200 | 4.6 | the most potent immune-suppressive effects | potent inhibitive activity | – | – | IC50 [3]: 5.2 µM; immune suppression activity ([2]; fig. 2D): the most potent compound of those assayed |
| CCCCCCCCCCCNCC(O)CCCCn1c(=O)c2c(ncn2C)n(C)c1=O (stereo not drawn) [compound no. 30, 1-(6-Undecylamino-5-hydroxyhexyl)-3,7-dimethylxanthine] | – | 15 | 900 | 0.94 | the most potent immune-suppressive effects | potent inhibitive activity | too toxic | showed yeast-growth inhibitive activity | MCC [7]: > 900 nM; cytotoxicity, ranking among compounds tested (CMV promoter activity): the most cytotoxic compound tested |
| CCCCCCN(CCCCCC)CC(O)CCCCn1c(=O)c2c(ncn2C)n(C)c1=O (stereo not drawn) [compound no. 33, 1-(5-hydroxy-6-(N,N-dihexyl)aminohexyl)-3,7-dimethylxanthine] | – | 100 | – | 8.6 | – | – | – | showed yeast-growth inhibitive activity | – |
| CCCCCCCCNCC(O)CCCCCCCn1c(=O)c2c(ncn2C)n(C)c1=O (stereo not drawn) [compound no. 35, 1-(8-hydroxy-9-(N-octyl)aminononyl)-3,7-dimethylxanthine] | – | – | – | – | – | – | too toxic | – | inhibition of thymocyte proliferation, compound added with IL-2 (mouse thymocytes; Con A pre-treated cells, 1µM): dramatically inhibited thymocyte proliferation; proliferation in response to IL-2 after compound present during Con A priming (mouse thymocytes; compound during overnight Con A incubation, IL-2 without compound): normal thymocyte proliferation in response to IL-2 stimulation; inhibition of IL-2-induced proliferation ([8]; murine IL-2 (15 U/ml), figs. 21C and 21D): exhibited no activity in this assay; IC50 values (range in words) ([5]; figs. 21A and 21B): low micromolar |
| CCCCCCCCCCNCC(O)CCCCCCCCCn1c(=O)c2c(ncn2C)n(C)c1=O (stereo not drawn) [compound no. 49, 1-(11-Decylamino-10-hydroxyundecyl)-3,7-dimethylxanthine] | – | – | – | – | – | – | – | – | IL-2 production (IL-2): do not inhibit production of IL-2; inhibition at 1 µM [9]: 90%; inhibition of direct IL-2-induced proliferation ([8]; added one hour prior to IL-2, thymidine at 48 hours): inhibited direct IL-2-induced CT6 proliferation; IL-2 receptor expression [10]: has no effect on receptor expression |
